Results as given in patent US20240246977A1, “DEGRADATION OF BRUTON'S TYROSINE KINASE (BTK) BY CONJUGATION OF BTK INHIBITORS WITH E3 LIGASE LIGAND AND METHOD OF USE” (BeiGene Switzerland GmbH, priority 2021, published 2024).

Experiments:
HEK-293 cells = test: HEK-293 cytotoxicity detection (CellTiter-Glo); format: cell-based; conditions: Homo sapiens, 72 h, 72 h incubation, CellTiter-Glo luminescence, read-out: HEK293
Procedure, shortened: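 HEK-293 cells exposed 72 h to 8 compounds doses (4-fold dilutions, top stock 5 mM at 500×) in 0.2% DMSO. Viability by CellTiter-Glo luminescence; inhibition normalised to DMSO high control and low control, IC50 from four-parameter curve fit.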

BTK = BTK (Homo sapiens, UniProt Q06187); test: BTK cell degradation in TMD-8 cells, HTRF assay; format: cell-based; design: endogenous in cells; host or cells: TMD-8 cells; conditions: 6 h treatment, IC50 (DC50) of BTK degradation
Procedure, shortened: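 BTK levels read by HTRF in lysates of TMD-8 cells exposed to compounds for 6 h, eight concentrations at 6-fold steps in 0.2% DMSO. Percent degradation versus DMSO and low controls was fitted with a four-parameter equation to give DC50; Dmax is maximal degradation.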

Sequence of BTK (Q06187 whole entry): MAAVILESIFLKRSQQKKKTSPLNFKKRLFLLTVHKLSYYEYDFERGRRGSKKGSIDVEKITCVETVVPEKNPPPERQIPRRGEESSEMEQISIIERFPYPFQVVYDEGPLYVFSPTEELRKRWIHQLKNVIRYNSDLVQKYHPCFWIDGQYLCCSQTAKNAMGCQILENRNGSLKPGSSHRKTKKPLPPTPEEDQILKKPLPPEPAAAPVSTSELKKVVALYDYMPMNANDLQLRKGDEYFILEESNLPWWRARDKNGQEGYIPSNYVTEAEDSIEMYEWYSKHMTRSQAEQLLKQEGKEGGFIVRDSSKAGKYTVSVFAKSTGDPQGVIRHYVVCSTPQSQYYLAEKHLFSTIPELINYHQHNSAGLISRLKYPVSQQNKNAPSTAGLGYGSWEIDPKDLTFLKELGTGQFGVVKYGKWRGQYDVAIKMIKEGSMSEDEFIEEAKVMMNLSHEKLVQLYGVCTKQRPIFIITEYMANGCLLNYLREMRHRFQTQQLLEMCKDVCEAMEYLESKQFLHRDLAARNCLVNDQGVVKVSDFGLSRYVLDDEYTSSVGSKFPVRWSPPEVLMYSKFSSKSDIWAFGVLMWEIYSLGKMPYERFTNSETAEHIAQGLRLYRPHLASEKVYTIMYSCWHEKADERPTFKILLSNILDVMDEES

| DC50 (BTK) [nM] | Compound | IC50 (HEK-293 cells) [nM] |
| --- | --- | --- |
| 3.8 | COc1ccccc1C(=O)NCc1ccc(-c2nn3c(c2C(N)=O)Nc2ccc(N4CCN(CC5CCN(c6ccc(N7CCC(=O)NC7=O)cc6)CC5)CC4)cc2CC3)c(OC)c1 [Example C44, 7-(4-((1-(4-(2,4-dioxotetrahydropyrimidin-1(2H)-yl)phenyl)piperidin-4-yl)methyl)piperazin-1-yl)-2-(2-methoxy-4-((2-methoxybenzamido)methyl)phenyl)-9,10-dihydro-4H-benzo[d]pyrazolo[1,5-a][1,3]diazepine-3-carboxamide] | 642 |
| 4.38 | COc1ccccc1C(=O)NCc1ccc(-c2nn3c(c2C(N)=O)Nc2ccc(N4CCN(CC5CCN(c6ccc(N7CCC(=O)NC7=O)cc6)CC5)CC4)cc2CC3)c(F)c1C [Example C46, 7-(4-((1-(4-(2,4-dioxotetrahydropyrimidin-1(2H)-yl)phenyl)piperidin-4-yl)methyl)piperazin-1-yl)-2-(2-fluoro-4-((2-methoxybenzamido)methyl)-3-methylphenyl)-9,10-dihydro-4H-benzo[d]pyrazolo[1,5-a][1,3]diazepine-3-carboxamide] | > 10000 |
| 4.64 | COc1ccccc1C(=O)NCc1ccc(-c2nn3c(c2C(N)=O)Nc2ccc(N4CCN(CC5CCN(c6ccc(N7CCC(=O)NC7=O)cc6)CC5)CC4)cc2CC3)c(F)c1F [Example C47, 2-(2,3-difluoro-4-((2-methoxybenzamido)methyl)phenyl)-7-(4-((1-(4-(2,4-dioxotetrahydropyrimidin-1(2H)-yl)phenyl)piperidin-4-yl)methyl)piperazin-1-yl)-9,10-dihydro-4H-benzo[d]pyrazolo[1,5-a] [1,3]diazepine-3-carboxamide] | 222 |
| 3.52 | COc1ccccc1C(=O)NCc1cc(F)c(-c2nn3c(c2C(N)=O)Nc2ccc(N4CCN(CC5CCN(c6ccc(N7CCC(=O)NC7=O)cc6)CC5)CC4)cc2CC3)cc1C [Example C48, 7-(4-((1-(4-(2,4-dioxotetrahydropyrimidin-1(2H)-yl)phenyl)piperidin-4-yl)methyl)piperazin-1-yl)-2-(2-fluoro-4-((2-methoxybenzamido)methyl)-5-methylphenyl)-9,10-dihydro-4H-benzo[d]pyrazolo[1,5-a][1,3]diazepine-3-carboxamide] | > 10000 |

The remaining lines, values behind:

| Compound | DC50 (BTK) [nM] | IC50 (HEK-293 cells) [nM] |
| --- | --- | --- |
| COc1ccc(C)cc1C(=O)NCc1ccc(-c2nn3c(c2C(N)=O)Nc2ccc(N4CCN(CC5CCN(c6ccc(N7CCC(=O)NC7=O)cc6)CC5)CC4)cc2CC3)cc1C [Example C39, 7-(4-((1-(4-(2,4-dioxotetrahydropyrimidin-1(2H)-yl)phenyl)piperidin-4-yl)methyl)piperazin-1-yl)-2-(4-((2-methoxy-5-methylbenzamido)methyl)-3-methylphenyl)-9,10-dihydro-4H-benzo[d]pyrazolo[1,5-a][1,3]diazepine-3-carboxamide] | 8.52 | > 10000 |
| COc1c(F)cccc1C(=O)NCc1ccc(-c2nn3c(c2C(N)=O)Nc2ccc(N4CCN(CC5CCN(c6ccc(N7CCC(=O)NC7=O)cc6)CC5)CC4)cc2CC3)cc1C [Example C40, 7-(4-((1-(4-(2,4-dioxotetrahydropyrimidin-1(2H)-yl)phenyl)piperidin-4-yl)methyl)piperazin-1-yl)-2-(4-((3-fluoro-2-methoxybenzamido)methyl)-3-methylphenyl)-9,10-dihydro-4H-benzo[d]pyrazolo[1,5-a][1,3]diazepine-3-carboxamide] | 10.5 | > 10000 |
| COc1cc(F)ccc1C(=O)NCc1ccc(-c2nn3c(c2C(N)=O)Nc2ccc(N4CCN(CC5CCN(c6ccc(N7CCC(=O)NC7=O)cc6)CC5)CC4)cc2CC3)cc1C [Example C41, 7-(4-((1-(4-(2,4-dioxotetrahydropyrimidin-1(2H)-yl)phenyl)piperidin-4-yl)methyl)piperazin-1-yl)-2-(4-((4-fluoro-2-methoxybenzamido)methyl)-3-methylphenyl)-9,10-dihydro-4H-benzo[d]pyrazolo[1,5-a][1,3]diazepine-3-carboxamide] | 9.74 | > 10000 |
| COc1ccc(F)cc1C(=O)NCc1ccc(-c2nn3c(c2C(N)=O)Nc2ccc(N4CCN(CC5CCN(c6ccc(N7CCC(=O)NC7=O)cc6)CC5)CC4)cc2CC3)cc1C [Example C42, 7-(4-((1-(4-(2,4-dioxotetrahydropyrimidin-1(2H)-yl)phenyl)piperidin-4-yl)methyl)piperazin-1-yl)-2-(4-((5-fluoro-2-methoxybenzamido)methyl)-3-methylphenyl)-9,10-dihydro-4H-benzo[d]pyrazolo[1,5-a][1,3]diazepine-3-carboxamide] | 5.36 | > 10000 |
| COc1c(F)c(F)c(F)c(F)c1C(=O)NCc1ccc(-c2nn3c(c2C(N)=O)Nc2ccc(N4CCN(CC5CCN(c6ccc(N7CCC(=O)NC7=O)cc6)CC5)CC4)cc2CC3)cc1C [Example C43, 7-(4-((1-(4-(2,4-dioxotetrahydropyrimidin-1(2H)-yl)phenyl)piperidin-4-yl)methyl)piperazin-1-yl)-2-(3-methyl-4-((2,3,4,5-tetrafluoro-6-methoxybenzamido)methyl)phenyl)-9,10-dihydro-4H-benzo[d]pyrazolo[1,5-a][1,3]diazepine-3-carboxamide] | 29.4 | 979 |
| COc1ccccc1C(=O)NCc1ccc(-c2nn3c(c2C(N)=O)Nc2ccc(N4CCN(CC5CCN(c6ccc(N7CCC(=O)NC7=O)cc6)CC5)CC4)cc2CC3)cc1C(F)(F)F [Example C45, 7-(4-((1-(4-(2,4-dioxotetrahydropyrimidin-1(2H)-yl)phenyl)piperidin-4-yl)methyl)piperazin-1-yl)-2-(4-((2-methoxybenzamido)methyl)-3-(trifluoromethyl)phenyl)-9,10-dihydro-4H-benzo[d]pyrazolo[1,5-a][1,3]diazepine-3-carboxamide] | 56.4 | > 10000 |
| COc1c(C)cccc1C(=O)NCc1ccc(-c2nn3c(c2C(N)=O)Nc2ccc(N4CCN(CC5CCN(c6ccc(N7CCC(=O)NC7=O)cc6)CC5)CC4)cc2CC3)cc1C [Example C49, 7-(4-((1-(4-(2,4-dioxotetrahydropyrimidin-1(2H)-yl)phenyl)piperidin-4-yl)methyl)piperazin-1-yl)-2-(4-((2-methoxy-3-methylbenzamido)methyl)-3-methylphenyl)-9,10-dihydro-4H-benzo[d]pyrazolo[1,5-a][1,3]diazepine-3-carboxamide] | 9.8 | > 10000 |
